Measured values as given in PMC11099041, “Tissue distribution and retention drives efficacy of rapidly clearing VHL-based PROTACs” (Communications Medicine, 2024).
Several values for one entry are separate records, joined by “and”; a condition that tells them apart may be missing. Equal values may be shown once.

Experiments:
HCC2302 xenograft = test: Mouse efficacy study, tumor volume; format: in vivo
Experimental: Female C.B-17 SCID (Inbred) mice that weighed 16–20 g were inoculated with 10 million HCC2302 lung adenocarcinoma cells (suspended in a mixture of Hank’s Balanced Salt Solution containing Matrigel at a 1:1 ratio) in the right flank subcutaneously. Tumors were monitored until they reached a mean tumor volume of 110–167 mm^3. The mean tumor volume across all three groups was 141 ± 16.64 mm^3 (mean ± SD) at the initiation of dosing (Study WF-31, n = 10). […] Tumor volumes were measured in two dimensions (length and width) using Ultra Cal-IV calipers. The tumor volume was calculated with the following formula: Tumor size (mm^3) = (longer measurement × shorter measurement^2)/2. Animal body weights were measured using an Adventura scale. Percent weight change was calculated using the following formula: Group percent weight change = (new weight − initial weight)/ initial weight) × 100%.
In a separate study, tumors were monitored until they reached a mean tumor volume of 121–159 mm^3. The mean tumor volume across all three groups was 138 ± 10.26 mm^3 (mean ± SD) at the initiation of dosing (Study WF-34, n = 10).

[1] = tested on: primary human hepatocytes; test: Oil-spin hepatocyte uptake assay; format: in vitro ADME
Experimental: Uptake studies were conducted using the oil-spin method described previously. Cryopreserved primary human hepatocytes (Lot KCN, BioIVT, Hicksville, NY) were thawed at 37 °C and re-suspended in InVitroGro-HT medium (BioIVT, Hicksville, NY). The suspension was centrifuged at 50 × g for 5 minutes at 4 °C, and the resulting pellet was re-suspended to 2 million cells/mL in ice-cold KHB buffer with 10% human serum (BioIVT, Hicksville, NY). The cell suspension was equilibrated to 37 °C in a water bath for 10 minutes with or without inhibitors. At the start of the uptake experiment, 37 °C KHB buffer containing test compounds with or without inhibitors was added to the hepatocyte suspension. At various time points, the uptake was terminated by removing portions of the suspension to microcentrifuge tubes containing a lower […] ammonium acetate layer and an upper mineral/silicone oil layer. For the 4 °C experiment, ice-cold buffer containing test compounds with or without inhibitors was added to ice-cold hepatocyte suspension, and the mixture was incubated on ice for the duration of the experiment. The microcentrifuge tubes were immediately centrifuged at 16,000 × g for 12 seconds. The tubes were then frozen on dry ice. The frozen hepatocyte pellets were cut from the tubes and transferred to −80 °C freezer until LC-MS/MS analysis. […]

[2] = Protein binding by equilibrium dialysis (plasma, tissue homogenates, DPBS); format: in vitro ADME, rat
Experimental: Control plasma was purchased from BioIVT, Hicksville, New York. Pooled plasma was obtained from at least three rats with K2EDTA as the anticoagulant. Control plasma was used to test the suitability of the system and for positive control analysis. Dulbecco’s phosphate-buffered saline (DPBS) (Millipore Sigma, St Louis, Missouri) was used to test the suitability of the system and as the receiver side of the dialysis device. […] The stock solution was added to the matrix (plasma or DPBS) and swirled to mix. The fortified matrix was then incubated at 37 °C for 15 min. Triplicate aliquots of the fortified matrix were analyzed by LSC.
The high throughput dialysis apparatus, model HTD96b, was used (HTDialysis LLC, Gales Ferry, Connecticut). Prior to assembly, dialysis membrane strips (molecular weight cutoff of 6–8 kDa) were hydrated, and the Teflon bars were assembled according to manufacturer’s instructions, with dialysis membrane strips laid between bars creating two compartments per well. The assembled unit was locked in place in the steel base plate. A 150 µL aliquot of each fortified matrix (tissue homogenates, plasma, or DPBS) and DPBS were added to the donor and receiver side of the HTD wells in a Teflon plate, respectively, and the plate was sealed. Samples were incubated at 37 °C and rotated at 300 rpm for 7 hours. After incubation, the seal was removed, and tissue homogenates, plasma, or DPBS and dialysate from each device insert were analyzed by LSC. All protein binding determinations were performed in triplicate.
Dialysis was performed accordingly. The radioactivity concentration of the test article in the donor and receiver samples was determined by LSC (count time 60 min) for the calculation of protein binding. […] After the designated time, aliquots of the individual donor and receiver samples were removed and analyzed by LSC. The remaining sample volume was stored at −20 °C.
Dialysis was performed accordingly.
Protein binding by equilibrium dialysis:1 PercentDrugBound=(Cm-Cd)/Cm×100 2 PercentDrugUnbound=100-PercentBound where: Cd, concentration of test article in dialysate at equilibrium; Cm, Concentration of test article in matrix at equilibrium.
Recovery from equilibrium dialysis:3 Recovery(%)=(Cm×Vm)+(Cd×Vd)/(Co×Vo)×100 where: Cm, Concentration of test article in matrix at equilibrium; Cd, Concentration of test article in dialysate at equilibrium; Co, Original concentration of test article in matrix prior to loading the dialysis device; Vm, Nominal volume of the matrix at equilibrium; Vd, Nominal volume of the dialysate at equilibrium; Vo, Nominal volume of the original matrix added to the dialysis device.

## Cc1ncsc1-c1ccc(C(C)NC(=O)C2CC(O)CN2C(=O)C(c2cc(N3CCC(CN4CCC(OC5CC(Oc6cc(N7C8CCC7CN(c7cc(-c9ccccc9O)nnc7N)C8)ccn6)C5)CC4)CC3)no2)C(C)C)cc1 (stereo not shown) [A947]
HCC2302 xenograft; HCC2302 xenograft, weekly doses of 20 or 40 mg/kg
  Tumor growth inhibition: dose-dependent tumor growth inhibition
HCC2302 xenograft; WF-31, 40 mg/kg IV QW, day 0, 3, 7, 10, 13, 14, 21
  Tumor volume (mean): 202.88 mm^3 and 192.71 mm^3 and 203.88 mm^3 and 210.27 mm^3 and 204.46 mm^3 and 141.86 mm^3 and 179.41 mm^3
[1]; 4 °C
  Uptake by primary human hepatocytes at 4 °C: abolished
[1]; co-administration of 1 mM rifamycin SV
  Temperature-dependent uptake with rifamycin SV: largely inhibited

## Cc1ncsc1-c1ccc(C(C)NC(=O)C2CC(O)CN2C(=O)C(c2cc(N3CCC(CN4CCC(OC5CC(Oc6cc(N7C8CCC7CN(c7cc(-[14c]9[14cH][14cH][14cH][14cH][14c]9O)nnc7N)C8)ccn6)C5)CC4)CC3)no2)C(C)C)cc1 (stereo not shown) [14C-A947]
[2]
  Percent Bound: 99.3%
  Percentage bound (mean), Control Plasma: 99.2%
  Percentage bound (mean), Kidney: 100%
  Percentage bound (mean), Liver: 100%
  Percentage bound (mean), Lungs: 99.5%
  Percentage bound (mean), Pancreas: 100%
  Percentage bound (mean), Plasma (4 hour): 96.8%
  Percentage bound (mean), Plasma (24 hour): 98.2%
  Percentage bound (mean), Plasma (48 hour): 97.5%
  Percentage bound (mean), Prostate Gland: 99.8%
  Percentage bound (mean), Spleen: 99.1%
  Percentage bound (mean), Thymus: 100%
[2]; rat, plasma
  Fu: 0.007
  Percentage unbound (mean), Control Plasma: 0.795%
  Percentage unbound (mean), Plasma (4 hour): 0.548%
  Percentage unbound (mean), Plasma (24 hour): 0.595%
  Percentage unbound (mean), Plasma (48 hour): 0.863%
[2]; rat, tissue homogenate
  Percentage unbound (mean), Liver: 0.0298%
  Percentage unbound (mean), Lungs: 0.09%
  Percentage unbound (mean), Pancreas: 0.0125%
  Percentage unbound (mean), Thymus: 0.0426%
